The text below walks through data of ChEMBL document CHEMBL1144377, “Oximinoarylsulfonamides as potent HIV protease inhibitors” (Bioorg Med Chem Lett, 2005).

Assay [1] deals with Human immunodeficiency virus 1. As to the kind of experiment: Inhibitory concentration against resistant (A17) human immunodeficiency virus. It counts as functional, organism-based.
The subject of assay [2] is Human immunodeficiency virus 1. As to the kind of experiment: Inhibitory concentration against wild type human immunodeficiency virus. It counts as functional, organism-based.

`CC(C)CN(C[C@@H](O)[C@H](Cc1ccccc1)NC(=O)O[C@H]1CCOC1)S(=O)(=O)c1ccc(N)cc1`: the values for the IC50 in assay [1] and in assay [2] were 3720 nM and 109 nM, respectively. The matching figures for `Cc1nc(CN2CCN([C@H](C(=O)N[C@@H](Cc3ccccc3)[C@H](O)CN(CC(C)C)S(=O)(=O)c3ccc(CO)cc3)C(C)C)C2=O)cs1`: 99 nM and 61 nM. For `CO/N=C\c1ccc(S(=O)(=O)N(CC(C)C)C[C@@H](O)[C@H](Cc2ccccc2)NC(=O)[C@H](C(C)C)N2CCN(Cc3csc(C)n3)C2=O)cc1` the same measures were 3010 nM and 653 nM. The matching figures for `Cc1nc(CN2CCN([C@H](C(=O)N[C@@H](Cc3ccccc3)[C@H](O)CN(CC(C)C)S(=O)(=O)c3ccc(C(=N)NO)cc3)C(C)C)C2=O)cs1`: 523 nM and 143 nM.

`Cc1nc(CN2CCN([C@H](C(=O)N[C@@H](Cc3ccccc3)[C@H](O)CN(CC(C)C)S(=O)(=O)c3ccc(/C=N\O)cc3)C(C)C)C2=O)cs1`: the IC50 (usually the concentration at which inhibition is half-maximal) was determined as 31 nM in assay [1] and 5 nM in assay [2]. Regarding `Cc1nc(CN2CCN([C@H](C(=O)N[C@@H](Cc3ccccc3)[C@H](O)CN(CC(C)C)S(=O)(=O)c3ccc(C(N)=O)cc3)C(C)C)C2=O)cs1`, the IC50 in assay [1] turned out to be 944 nM; in assay [2], 254 nM. Consider `Cc1nc(CN2CCN([C@H](C(=O)N[C@@H](Cc3ccccc3)[C@H](O)CN(CC(C)C)S(=O)(=O)c3cccc(/C=N\O)c3)C(C)C)C2=O)cs1`, for which the values for the IC50 in assay [1] and in assay [2] were 222 nM and 16 nM, respectively.

In the case of `Cc1nc(CN2CCN([C@H](C(=O)N[C@@H](Cc3ccccc3)[C@H](O)CN(CC(C)C)S(=O)(=O)c3ccc(C#N)cc3)C(C)C)C2=O)cs1`, the values for the IC50 in assay [1] and in assay [2] were 1170 nM and 148 nM, respectively. The matching figures for `Cc1nc(CN2CCN([C@H](C(=O)N[C@@H](Cc3ccccc3)[C@H](O)CN(CC(C)C)S(=O)(=O)c3cccc(CO)c3)C(C)C)C2=O)cs1`: 910 nM and 45 nM. For `Cc1nc(CN2CCN([C@H](C(=O)N[C@@H](Cc3ccccc3)[C@H](O)CN(CC(C)C)S(=O)(=O)c3ccc(N)cc3)C(C)C)C2=O)cs1` the same measures were 311 nM and 31 nM. With `Cc1nc(CN2CCN([C@H](C(=O)N[C@@H](Cc3ccccc3)[C@H](O)CN(CC(C)C)S(=O)(=O)c3ccc(NS(C)(=O)=O)cc3)C(C)C)C2=O)cs1`, the IC50 in assay [1] was 10000 nM; in assay [2] it was 1190 nM. For `CC(=O)Nc1ccc(S(=O)(=O)N(CC(C)C)C[C@@H](O)[C@H](Cc2ccccc2)NC(=O)[C@H](C(C)C)N2CCN(Cc3csc(C)n3)C2=O)cc1` the same measures were 1520 nM and 312 nM. The matching figures for `Cc1nc(CN2CCN([C@H](C(=O)N[C@@H](Cc3ccccc3)[C@H](O)CN(CC(C)C)S(=O)(=O)c3ccc(C=O)cc3)C(C)C)C2=O)cs1`: 206 nM and 51 nM. The matching figures for `Cc1nc(CN2CCN([C@H](C(=O)N[C@@H](Cc3ccccc3)[C@H](O)CN(CC(C)C)S(=O)(=O)c3ccc(C(=O)O)cc3)C(C)C)C2=O)cs1`: 9440 nM and 10000 nM. As for `CC(=O)c1ccc(S(=O)(=O)N(CC(C)C)C[C@@H](O)[C@H](Cc2ccccc2)NC(=O)[C@H](C(C)C)N2CCN(Cc3csc(C)n3)C2=O)cc1`, the IC50 in assay [1] is 680 nM; in assay [2] it was 39 nM. The matching figures for `Cc1nc(CN2CCN([C@H](C(=O)N[C@@H](Cc3ccccc3)[C@H](O)CN(CC(C)C)S(=O)(=O)c3ccc(NC=O)cc3)C(C)C)C2=O)cs1`: 2410 nM and 168 nM. For `C=Cc1ccc(S(=O)(=O)N(CC(C)C)C[C@@H](O)[C@H](Cc2ccccc2)NC(=O)[C@H](C(C)C)N2CCN(Cc3csc(C)n3)C2=O)cc1` the same measures were 957 nM and 101 nM.

The compound `Cc1cccc(C)c1OCC(=O)N[C@@H](Cc1ccccc1)[C@@H](O)C[C@H](Cc1ccccc1)NC(=O)[C@H](C(C)C)N1CCCNC1=O` [LOPINAVIR] yielded an IC50 in assay [1] of 1240 nM. Still for that read-out and setting: the result for `CC(C)c1nc(CN(C)C(=O)N[C@H](C(=O)N[C@@H](Cc2ccccc2)C[C@H](O)[C@H](Cc2ccccc2)NC(=O)OCc2cncs2)C(C)C)cs1` [RITONAVIR] reads 3440 nM.
